Test results published in patent publication US20100063008A1, “GELATINOUS ELASTOMER COMPOSITIONS” (Silipos, Inc., priority 2008, published 2010).

Key:
[1] = Total weight of exudate (oil) absorbed by filter paper blotter discs and theoretical amount of each ingredient exuded; assay type: physicochemical
Experimental: (§1) Exposure Conditions: 37-40 deg. C., Sample filter paper discs in contact with gel specimens of same diameter were stacked in […]. aluminum petri dishes, gel specimen diameter 2.625″×0.125″ thick, filter paper disc diameter 2.625″ with another petri dish and a 1 kg dead weight on top of stack. Pressure calculated at ˜0.407 psi. (2.8 Mpa) constant. Two replicates per test condition. Repeat exposures at 3 hours then repeat three exposures of 18 hours each, changing discs but keeping same gel specimen and same side of each gel specimen in contact with each successive filter paper disc sample.
Data was calculated to determine the total weight of exudate absorbed by each individual sample filter paper blotter disc test specimen. Calculations were then performed based upon the ratios of ingredients in the gel disc formula to determine the theoretical amount of each ingredient that could have been exuded from the oil if the oil contained the same ratio of ingredients as contained in the control oil sample and in the gel.

[2] = Exudation of active agents from gel specimens to filter paper discs, quantified by UV, MS, GC and/or HPLC after extraction; assay type: physicochemical; details: for Active Agent Transferred from Gel to Filters: 37° C., 0.40 psi; for Total Active Agent Exuded from Gel: cumulative
Experimental: Sample filter paper discs were placed in contact with gel specimens of same diameter under constant low pressure (0.40 psi. (2.8 Mpa)) at 37° C. Multiple time-controlled exposures of the filter paper to the gel were preformed in succession to same side of gel. Quantification of active agent transferred to the filter paper discs was determined by UV, MS, GC and or HPLC analysis after extraction of active agent from the filter paper. Exudation rates was expressed as μg/unit time per unit surface area.
This compound was then divided into three aliquots' of approximately 10 grams each and poured into a 2.625″ diameter aluminum petri dish and allowed to cool to create individual gel samle discs. Subsequently, absorbent cellulose filter blotter paper was die cut to enough 2.625″ diameter discs to be employed as a wicking media for repeated exposure in direct contact with the gel compound under specific conditions as follows.
as §1
The filter paper disc specimens aa through kk were then sent to an analytical laboratory for HPLC and GC analysis along with a small sample of each individual raw ingredient so that the HPLC and GC equipment could be calibrated for the protocol being employed by the lab. This calibration allowed for determining the maximum recoverable (measurable) amount of each ingredient that could be measured using these techniques and would later be used to correct the data. The analytical laboratory then detected and measured the amount of each of the added active agents that was flushed out of the filter paper discs using wet chemistry techniques known to those skilled in the art.
The analytical data was interpreted, and the amounts of each ingredient which was exuded into each filter paper blotter disc specimen, and subsequently extracted using wet chemistry, were then entered into a data analysis spreadsheet and adjusted based on the Analytical Recovery Rate to determine actual concentration of each ingredient extracted.

[3] = Sample aa, Test Disc 1, Exposed 1 hours
[4] = Sample bb, Test Disc 1 Replicate, Exposed 1 hours
[5] = Sample cc, Test Disc 2, Exposed 3 hours
[6] = Sample dd, Test Disc 2 Replicate, Exposed 3 hours
[7] = Sample ee, Test Disc 3, Exposed 18 hours
[8] = Sample ff, Test Disc 3 Replicate, Exposed 18 hours
[9] = Sample gg, Test Disc 4, Exposed 18 hours
[10] = Sample hh, Test Disc 4 Replicate, Exposed 18 hours
[11] = Sample ii, Test Disc 5, Exposed 18 hours
[12] = Sample kk, Test Disc 5 Replicate, Exposed 18 hours
[13] = Gel Specimen Number 1, 1 h filter exposure, time 0-1 h
[14] = Gel Specimen Number 1, 3 h filter exposure, time 1-4 h
[15] = Gel Specimen Number 1, 18 h filter exposure, time 4-22 h
[16] = Gel Specimen Number 1, 18 h filter exposure, time 22-40 h
[17] = Gel Specimen Number 1, 18 h filter exposure, time 40-58 h
[18] = Gel Specimen Number 1, Time 1 h
[19] = Gel Specimen Number 1, Time 4 h
[20] = Gel Specimen Number 1, Time 22 h
[21] = Gel Specimen Number 1, Time 40 h
[22] = Gel Specimen Number 1, Time 58 h
[23] = Gel Specimen Number 2, 1 h filter exposure, time 0-1 h
[24] = Gel Specimen Number 2, 3 h filter exposure, time 1-4 h
[25] = Gel Specimen Number 2, 18 h filter exposure, time 4-22 h
[26] = Gel Specimen Number 2, 18 h filter exposure, time 22-40 h
[27] = Gel Specimen Number 2, 18 h filter exposure, time 40-58 h
[28] = Gel Specimen Number 2, Time 1 h
[29] = Gel Specimen Number 2, Time 4 h
[30] = Gel Specimen Number 2, Time 22 h
[31] = Gel Specimen Number 2, Time 40 h
[32] = Gel Specimen Number 2, Time 58 h
[33] = Specimen aa, Hours 1, Cummulative Hours 1
[34] = Specimen bb, Hours 1, Cummulative Hours 1
[35] = Specimen cc, Hours 3, Cummulative Hours 4
[36] = Specimen dd, Hours 3, Cummulative Hours 4
[37] = Specimen ee, Hours 18, Cummulative Hours 22
[38] = Specimen ff, Hours 18, Cummulative Hours 22
[39] = Specimen gg, Hours 18, Cummulative Hours 40
[40] = Specimen hh, Hours 18, Cummulative Hours 40
[41] = Specimen ii, Hours 18, Cummulative Hours 58
[42] = Specimen kk, Hours 18, Cummulative Hours 58

CCCCCCCCCCCCCCCC(=O)OC/C=C(C)/C=C/C=C(C)/C=C/C1=C(C)CCCC1(C)C [Vit. A Palmitate, reference compound]
Estimated grams of ingredient exuded (theoretical amount from ratios of ingredients in the gel disc formula) [1, 3]: 0.0022 grams
Estimated grams of ingredient exuded (theoretical amount from ratios of ingredients in the gel disc formula) [1, 4]: 0.0031 grams
Estimated grams of ingredient exuded (theoretical amount from ratios of ingredients in the gel disc formula) [1, 5]: 0.0024 grams
Estimated grams of ingredient exuded (theoretical amount from ratios of ingredients in the gel disc formula) [1, 6]: 0.0035 grams
Estimated grams of ingredient exuded (theoretical amount from ratios of ingredients in the gel disc formula) [1, 7]: 0.0062 grams
Estimated grams of ingredient exuded (theoretical amount from ratios of ingredients in the gel disc formula) [1, 8]: 0.0062 grams
Estimated grams of ingredient exuded (theoretical amount from ratios of ingredients in the gel disc formula) [1, 9]: 0.0064 grams
Estimated grams of ingredient exuded (theoretical amount from ratios of ingredients in the gel disc formula) [1, 10]: 0.0057 grams
Estimated grams of ingredient exuded (theoretical amount from ratios of ingredients in the gel disc formula) [1, 11]: 0.0051 grams
Estimated grams of ingredient exuded (theoretical amount from ratios of ingredients in the gel disc formula) [1, 12]: 0.0051 grams
Active Agent Transferred from Gel to Filters [2, 13]: 841 μg per filter
Active Agent Transferred from Gel to Filters [2, 14]: 977 μg per filter
Active Agent Transferred from Gel to Filters [2, 15]: 1955 μg per filter
Active Agent Transferred from Gel to Filters [2, 16]: 1682 μg per filter
Active Agent Transferred from Gel to Filters [2, 17]: 916 μg per filter
Total Active Agent Exuded from Gel [2, 18]: 841 µg
Total Active Agent Exuded from Gel [2, 19]: 1818 µg
Total Active Agent Exuded from Gel [2, 20]: 3773 µg
Total Active Agent Exuded from Gel [2, 21]: 5455 µg
Total Active Agent Exuded from Gel [2, 22]: 6370 µg
Active Agent Transferred from Gel to Filters [2, 23]: 1159 μg per filter
Active Agent Transferred from Gel to Filters [2, 24]: 1284 μg per filter
Active Agent Transferred from Gel to Filters [2, 25]: 1864 μg per filter
Active Agent Transferred from Gel to Filters [2, 26]: 1307 μg per filter
Active Agent Transferred from Gel to Filters [2, 27]: 1523 μg per filter
Total Active Agent Exuded from Gel [2, 28]: 1159 µg
Total Active Agent Exuded from Gel [2, 29]: 2443 µg
Total Active Agent Exuded from Gel [2, 30]: 4307 µg
Total Active Agent Exuded from Gel [2, 31]: 5614 µg
Total Active Agent Exuded from Gel [2, 32]: 7136 µg
Quantitative Analysis - Islechem u-gram extraction [2, 33]: 740 u-gram
Quantitative Analysis - Islechem u-gram extraction [2, 34]: 1020 u-gram
Quantitative Analysis - Islechem u-gram extraction [2, 35]: 860 u-gram
Quantitative Analysis - Islechem u-gram extraction [2, 36]: 1130 u-gram
Quantitative Analysis - Islechem u-gram extraction [2, 37]: 1720 u-gram
Quantitative Analysis - Islechem u-gram extraction [2, 38]: 1640 u-gram
Quantitative Analysis - Islechem u-gram extraction [2, 39]: 1480 u-gram
Quantitative Analysis - Islechem u-gram extraction [2, 40]: 1150 u-gram
Quantitative Analysis - Islechem u-gram extraction [2, 41]: 806 u-gram
Quantitative Analysis - Islechem u-gram extraction [2, 42]: 1340 u-gram

Synthetic Menthol [S-Menthol]
Estimated grams of ingredient exuded (theoretical amount from ratios of ingredients in the gel disc formula) [1, 3]: 0.0022 grams
Estimated grams of ingredient exuded (theoretical amount from ratios of ingredients in the gel disc formula) [1, 4]: 0.0031 grams
Estimated grams of ingredient exuded (theoretical amount from ratios of ingredients in the gel disc formula) [1, 5]: 0.0024 grams
Estimated grams of ingredient exuded (theoretical amount from ratios of ingredients in the gel disc formula) [1, 6]: 0.0035 grams
Estimated grams of ingredient exuded (theoretical amount from ratios of ingredients in the gel disc formula) [1, 7]: 0.0062 grams
Estimated grams of ingredient exuded (theoretical amount from ratios of ingredients in the gel disc formula) [1, 8]: 0.0062 grams
Estimated grams of ingredient exuded (theoretical amount from ratios of ingredients in the gel disc formula) [1, 9]: 0.0064 grams
Estimated grams of ingredient exuded (theoretical amount from ratios of ingredients in the gel disc formula) [1, 10]: 0.0057 grams
Estimated grams of ingredient exuded (theoretical amount from ratios of ingredients in the gel disc formula) [1, 11]: 0.0051 grams
Estimated grams of ingredient exuded (theoretical amount from ratios of ingredients in the gel disc formula) [1, 12]: 0.0051 grams
Active Agent Transferred from Gel to Filters [2, 13]: 3578 μg per filter
Active Agent Transferred from Gel to Filters [2, 14]: 4193 μg per filter
Active Agent Transferred from Gel to Filters [2, 15]: 8952 μg per filter
Active Agent Transferred from Gel to Filters [2, 16]: 8566 μg per filter
Active Agent Transferred from Gel to Filters [2, 17]: 7193 μg per filter
Total Active Agent Exuded from Gel [2, 18]: 3578 µg
Total Active Agent Exuded from Gel [2, 19]: 7771 µg
Total Active Agent Exuded from Gel [2, 20]: 16723 µg
Total Active Agent Exuded from Gel [2, 21]: 25289 µg
Total Active Agent Exuded from Gel [2, 22]: 32482 µg
Active Agent Transferred from Gel to Filters [2, 23]: 4855 μg per filter
Active Agent Transferred from Gel to Filters [2, 24]: 5373 μg per filter
Active Agent Transferred from Gel to Filters [2, 25]: 8916 μg per filter
Active Agent Transferred from Gel to Filters [2, 26]: 7446 μg per filter
Active Agent Transferred from Gel to Filters [2, 27]: 7108 μg per filter
Total Active Agent Exuded from Gel [2, 28]: 4855 µg
Total Active Agent Exuded from Gel [2, 29]: 10229 µg
Total Active Agent Exuded from Gel [2, 30]: 19145 µg
Total Active Agent Exuded from Gel [2, 31]: 26590 µg
Total Active Agent Exuded from Gel [2, 32]: 33699 µg
Quantitative Analysis - Islechem u-gram extraction [2, 33]: 2970 u-gram
Quantitative Analysis - Islechem u-gram extraction [2, 34]: 4030 u-gram
Quantitative Analysis - Islechem u-gram extraction [2, 35]: 3480 u-gram
Quantitative Analysis - Islechem u-gram extraction [2, 36]: 4460 u-gram
Quantitative Analysis - Islechem u-gram extraction [2, 37]: 7430 u-gram
Quantitative Analysis - Islechem u-gram extraction [2, 38]: 7400 u-gram
Quantitative Analysis - Islechem u-gram extraction [2, 39]: 7110 u-gram
Quantitative Analysis - Islechem u-gram extraction [2, 40]: 6180 u-gram
Quantitative Analysis - Islechem u-gram extraction [2, 41]: 5970 u-gram
Quantitative Analysis - Islechem u-gram extraction [2, 42]: 5900 u-gram
